# Earlier results as cited in patent US20160367620A1, “GLUTATHIONE” (priority 2015, published 2016).
# Assays:
# [1] = system: murine macrophage J774 cells; details: pretreatment; cited from earlier work
# [2] = system: HUVEC and QG90 cell; details: pretreatment of HUVEC, IL-1 induced; cited from earlier work
# [3] = system: human IL-4 production; details: stimulated peripheral blood T cells, Th0- and Th2-like T cell clones; cited from earlier work
# [4] = system: human alveolar macrophages (AM); details: AM previously exposed to LPS; cited from earlier work
# [5] = system: NFκB and COX-2; details: cited from earlier work
# [6] = system: human immunodeficiency virus (HIV) expression; details: U1 cells; cited from earlier work
# [7] = system: HIV-1 LTR; details: Jurkat cells; cited from earlier work
# [8] = system: NFκB activation by LPS; details: rats; cited from earlier work
# [9] = system: influenza virus specific lymphocytes; details: cited from earlier work
smiles,measurement,setting,value
"CC(=O)N[C@@H](CS)C(=O)O [NAC, N-Acetyl-L-Cysteine]",protection of macrophages against SNAP,[1],protected
same,cell-to-cell attachment of cancer cells to HUVEC,[2],efficiently blocked the cell-to-cell attachment in a dose-dependent manner
same,human IL-4 production,[3],decreased in a dose-dependent manner
same,IL-12 secretion,[4],enhanced
same,activation of NFκB and COX-2 by H. pylori infection,[5],inhibited
same,cytotoxic or cytostatic effects,[6],absence of cytotoxic or cytostatic effects
same,"induction of HIV expression mediated by PMA, TNF-α, or IL-6",[6],suppressed in a dose-dependent fashion
same,induction of HIV-1 LTR-mediated gene expression by TNF-α and Tat,[7],significantly suppressed
same,NFκB activation by LPS,[8],decreased
same,decrease of lung lavage neutrophil count,[8],six fold
same,IFN γ production,[9],increased
same,influenza virus specific lymphocyte proliferation,[9],increased
same,specific activity of influenza specific CD8+ CTL's,[9],enhanced
